Values quoted from earlier work, collected in patent US20210260003A9 (AZIENDE CHIMICHE RIUNITE ANGELINI FRANCESCO A.C.R.A.F. …, priority 2017, published 2021).

Key:
[1] = orally administered

Row | peak concentration (time) [1] | solubility in water | Molecule
1 | 0.5 to 2 h |  | CC(C(=O)O)c1cccc(C(=O)c2ccccc2)c1 (centres unmarked) [ketoprofen]
2 |  | 600 mg/mL | hydroxypropyl-β-cyclodextrin
